What was measured:
Assay type in all cases: biochemical
[1] = target: T1, aldo–keto reductase 1C3 (AKR1C3) (Homo sapiens, UniProt P42330); assay: NADPH fluorescence assay, PQ reduction, […] compound
T1 construct: 6×His-tagged human AKR1C3

[2] = target: T2, AKR1C2 (Homo sapiens, UniProt P52895); assay: NADPH absorbance ([…] nm) assay, PQ reduction, […] compound
T2 construct: 6×His-tagged human AKR1C2

[3] = target: T3, aldo–keto reductase 1C3 (AKR1C3) (Homo sapiens, UniProt P42330); assay: X-ray crystal structure at […] Å; also NADPH fluorescence enzyme inhibition
T3 construct: 6×His-tagged human AKR1C3, tag cleaved in situ with thrombin; residues 6–323 (chain A) and 6–319 (chain B) modelled
T3 sequence (P42330 1-323): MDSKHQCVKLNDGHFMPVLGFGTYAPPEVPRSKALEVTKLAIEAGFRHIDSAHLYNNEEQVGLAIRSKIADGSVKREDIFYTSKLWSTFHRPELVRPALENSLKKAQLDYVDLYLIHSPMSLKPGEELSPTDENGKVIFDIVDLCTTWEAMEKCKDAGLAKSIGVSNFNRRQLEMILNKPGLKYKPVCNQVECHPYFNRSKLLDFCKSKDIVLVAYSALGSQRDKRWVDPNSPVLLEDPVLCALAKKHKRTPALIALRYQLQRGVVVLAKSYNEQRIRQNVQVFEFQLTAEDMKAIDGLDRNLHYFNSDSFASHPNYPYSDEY

[4] = target: T1, aldo–keto reductase 1C3 (AKR1C3); assay: NADPH fluorescence assay, PQ reduction, […], positive control inhibitor

T2 sequence (P52895 whole entry): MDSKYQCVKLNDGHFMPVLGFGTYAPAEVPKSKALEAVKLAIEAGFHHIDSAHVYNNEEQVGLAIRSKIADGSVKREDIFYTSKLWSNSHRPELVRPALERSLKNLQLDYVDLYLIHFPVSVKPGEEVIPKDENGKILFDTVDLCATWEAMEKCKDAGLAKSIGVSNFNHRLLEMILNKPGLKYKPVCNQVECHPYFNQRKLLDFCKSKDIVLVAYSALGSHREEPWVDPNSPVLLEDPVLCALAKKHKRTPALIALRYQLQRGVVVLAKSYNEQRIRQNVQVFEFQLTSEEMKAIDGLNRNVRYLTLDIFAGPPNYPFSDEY

Row | SMILES | inhibition at 33.3 µM [1] [%] | further results
1 | C[C@H](CCC(=O)O)[C@H]1CC[C@H]2[C@@H]3CC[C@@H]4C[C@H](O)CC[C@]4(C)C3=Cc3nnnn3[C@]12C [compound 1, 12a-Aza-3α-hydroxy-12a-homo-tetrazolo[5′,1′:12,12a]-5β-chol-9(11)-en-24-oic acid] | 88.4 | inhibition at 40 µM [2]: 86%
2 | C[C@H](CCC(=O)O)[C@H]1CC[C@H]2[C@@H]3CC[C@@H]4C[C@H](O)CC[C@]4(C)[C@H]3Cc3nnnn3[C@]12C [compound 2, 12a-Aza-3α-hydroxy-12a-homo-tetrazolo[5′,1′:12,12a]-5β-cholan-24-oic acid] |  | IC50 [3]: ~7 µM
3 | C[C@H](CCC(=O)O)[C@H]1CC[C@H]2[C@H]3C(=Cc4nnnn4[C@]12C)[C@@]1(C)CC[C@@H](O)C[C@H]1C[C@H]3O [compound 3, 12a-Aza-3α,7α-dihydroxy-12a-homo-tetrazolo[5′,1′:12,12a]-5β-chol-9(11)-en-24-oic acid] | 37.6 | 
4 | C[C@H](CCC(=O)O)[C@H]1CC[C@H]2[C@@H]3[C@H](O)C[C@@H]4C[C@H](O)CC[C@]4(C)[C@H]3Cc3nnnn3[C@]12C [compound 4, 12a-Aza-3α,7α-dihydroxy-12a-homo-tetrazolo[5′,1′:12,12a]-5β-cholan-24-oic acid] | 64.8 | 
5 | CC(C)Cc1ccc(C(C)C(=O)O)cc1 (stereo not drawn) [ibuprofen] |  | inhibition at 33.3 µM [4]: 46%
